Experimental findings from ChEMBL document CHEMBL1137048, “Design and evaluation of novel nonsteroidal dissociating glucocorticoid receptor ligands” (Bioorg Med Chem Lett, 2004) are described below.

For assay [1], the target named is T1, Glucocorticoid receptor (Rattus norvegicus, UniProt P06536).
T1 sequence (P06536 whole entry): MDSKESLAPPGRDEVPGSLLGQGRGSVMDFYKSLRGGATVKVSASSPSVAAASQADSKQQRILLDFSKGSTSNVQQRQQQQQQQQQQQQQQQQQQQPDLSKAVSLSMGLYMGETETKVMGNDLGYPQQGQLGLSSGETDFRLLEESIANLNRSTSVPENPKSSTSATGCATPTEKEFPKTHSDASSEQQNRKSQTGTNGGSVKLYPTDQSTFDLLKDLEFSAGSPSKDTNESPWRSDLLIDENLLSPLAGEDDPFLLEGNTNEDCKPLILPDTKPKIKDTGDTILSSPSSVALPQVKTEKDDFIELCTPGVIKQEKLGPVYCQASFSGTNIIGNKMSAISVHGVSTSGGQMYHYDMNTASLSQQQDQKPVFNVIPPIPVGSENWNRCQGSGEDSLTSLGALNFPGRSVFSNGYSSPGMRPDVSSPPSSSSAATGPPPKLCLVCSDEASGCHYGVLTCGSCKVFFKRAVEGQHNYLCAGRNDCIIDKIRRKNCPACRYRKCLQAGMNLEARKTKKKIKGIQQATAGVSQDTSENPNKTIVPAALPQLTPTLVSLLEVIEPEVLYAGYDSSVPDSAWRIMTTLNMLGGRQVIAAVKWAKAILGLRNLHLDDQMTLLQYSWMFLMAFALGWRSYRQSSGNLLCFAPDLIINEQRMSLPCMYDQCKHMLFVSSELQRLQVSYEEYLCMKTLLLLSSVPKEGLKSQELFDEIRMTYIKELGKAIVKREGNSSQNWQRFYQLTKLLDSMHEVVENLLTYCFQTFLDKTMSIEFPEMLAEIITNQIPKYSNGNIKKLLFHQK
As to the kind of experiment: Repression of NF-kappaB-luciferase reporter activity in TPA stimulated U2OS cells expressing rat glucocorticoid receptor. The format is functional, cell-based. (In general: Reporter assays use an easily measured gene product as a stand-in for the process of interest.)

In assay [2] the target is T1, Glucocorticoid receptor. Nature of the assay: Repression of AP1-luciferase reporter activity in TPA-stimulated U2OS cells expressing rat glucocorticoid receptor. The format is functional, cell-based.
The target in assay [3] is T1, Glucocorticoid receptor. As to the kind of experiment: Effective concentration against MMTV in transactivation assay in U2OS cells expressing rat GR. The class given is functional, cell-based.
In assay [4] the target is T1, Glucocorticoid receptor. Nature of the assay: Inhibition against U2OS cells expressing rat Glucocorticoid receptor. The format is cell-based.
Assay [5] addresses T2, Glucocorticoid receptor (Homo sapiens, UniProt P04150).
T2 sequence (P04150 whole entry): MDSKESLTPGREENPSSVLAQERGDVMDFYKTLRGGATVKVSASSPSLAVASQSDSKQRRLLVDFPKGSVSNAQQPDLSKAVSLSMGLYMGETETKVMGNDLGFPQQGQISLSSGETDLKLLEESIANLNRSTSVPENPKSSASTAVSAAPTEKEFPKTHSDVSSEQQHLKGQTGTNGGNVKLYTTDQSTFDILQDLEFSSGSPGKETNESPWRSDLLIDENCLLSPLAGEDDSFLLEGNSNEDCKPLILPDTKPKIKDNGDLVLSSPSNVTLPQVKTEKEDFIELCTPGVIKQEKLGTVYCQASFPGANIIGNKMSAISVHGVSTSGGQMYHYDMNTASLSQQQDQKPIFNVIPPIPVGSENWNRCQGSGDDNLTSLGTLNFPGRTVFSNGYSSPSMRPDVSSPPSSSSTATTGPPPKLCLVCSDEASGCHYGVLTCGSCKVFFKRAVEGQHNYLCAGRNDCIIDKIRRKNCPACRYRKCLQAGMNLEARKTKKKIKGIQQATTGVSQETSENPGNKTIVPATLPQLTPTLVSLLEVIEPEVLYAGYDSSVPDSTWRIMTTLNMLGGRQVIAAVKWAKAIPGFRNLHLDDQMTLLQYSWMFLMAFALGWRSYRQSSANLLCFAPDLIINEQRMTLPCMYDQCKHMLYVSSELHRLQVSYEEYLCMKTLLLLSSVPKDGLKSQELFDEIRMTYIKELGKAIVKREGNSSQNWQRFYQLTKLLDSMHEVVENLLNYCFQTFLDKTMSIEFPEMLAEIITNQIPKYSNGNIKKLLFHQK
As to the kind of experiment: Binding affinity for recombinant human glucocorticoid receptor.

The target of assay [6] is T2, Glucocorticoid receptor. As to the kind of experiment: Effective concentration in CV-1 cell transactivation assay. The format is functional, cell-based.

The term EC50 denotes the concentration at which the effect is half-maximal. Read a low EC50 as greater potency. By IC50 is commonly meant the point on the concentration scale where inhibition reaches its midpoint. Consider `C[C@]12Cc3cnn(-c4ccc(F)cc4)c3C=C1CCC[C@@H]2C(O)c1csc2ccccc12` (stereo partly drawn), for which the EC50 at Glucocorticoid receptor [1] was found to be 22 nM; at Glucocorticoid receptor [2], 1.8 nM; at Glucocorticoid receptor [3], 20 nM. The IC50 on Glucocorticoid receptor [4] was 1.8 nM.
On Glucocorticoid receptor [4], `C[C@]12Cc3cnn(-c4ccc(F)cc4)c3C=C1CCC[C@@H]2C(O)c1ccc(Oc2ccccc2)cc1` (stereo partly drawn) had an IC50 of 15.5 nM.
`C[C@]12Cc3cnn(-c4ccc(F)cc4)c3C=C1CCC[C@@H]2C(O)c1ccc(C(F)(F)F)cc1` (stereo partly drawn): the figures for the EC50 at Glucocorticoid receptor [1], on Glucocorticoid receptor [2] and at Glucocorticoid receptor [3] were 24 nM, 31 nM and 31 nM, respectively. Moreover, the IC50 at Glucocorticoid receptor [4] was found to be 14 nM.
On to `C[C@]12Cc3cnn(-c4ccc(F)cc4)c3C=C1CCC[C@@H]2C(O)CCc1ccccc1` (stereo partly drawn), for which the EC50 was found to be 3 nM on Glucocorticoid receptor [1], 7 nM at Glucocorticoid receptor [2] and 11 nM at Glucocorticoid receptor [3]. This compound also displayed an IC50 at Glucocorticoid receptor [4] of 8.6 nM.
In the case of `CC12CCC(=O)C=C1CCCC2C(O)c1csc2ccccc12` (stereo not drawn), on Glucocorticoid receptor [5], the IC50 was 165 nM.
As to `Cc1ccc(C(O)[C@H]2CCCC3=Cc4c(cnn4-c4ccc(F)cc4)C[C@@]32C)cc1` (stereo partly drawn), the EC50 is 8 nM on Glucocorticoid receptor [1], 3 nM at Glucocorticoid receptor [2] and 4 nM on Glucocorticoid receptor [3]. The same compound had an IC50 against Glucocorticoid receptor [4] of 2.5 nM.
Consider `COc1cccc(C(O)[C@H]2CCCC3=Cc4c(cnn4-c4ccc(F)cc4)C[C@@]32C)c1` (stereo partly drawn), for which the figures for the EC50 at Glucocorticoid receptor [1], on Glucocorticoid receptor [2] and at Glucocorticoid receptor [3] were 3 nM, 19 nM and 4 nM, respectively. Half-maximal inhibition against Glucocorticoid receptor [4] (IC50) required 2.3 nM.
`C[C@]12Cc3cnn(-c4ccc(F)cc4)c3C=C1CCC[C@@H]2C(O)c1ccc(O)cc1` (stereo partly drawn): the results for the EC50 on Glucocorticoid receptor [1], at Glucocorticoid receptor [2] and at Glucocorticoid receptor [3] were 12 nM, 16 nM and 20 nM, respectively. This compound also came in with an IC50 at Glucocorticoid receptor [4] of 6.6 nM.
Take `C[C@]12Cc3cnn(-c4ccc(F)cc4)c3C=C1CCC[C@@H]2C(O)c1ccc(Cl)cc1` (stereo partly drawn): the EC50 at Glucocorticoid receptor [1] came out at 4 nM; at Glucocorticoid receptor [2], 3 nM; on Glucocorticoid receptor [3], 9 nM. The same compound showed an IC50 against Glucocorticoid receptor [4] of 7 nM.
For the compound `C[C@]12Cc3cnn(-c4ccc(F)cc4)c3C=C1CCC[C@@H]2C(O)c1cccc(O)c1` (stereo partly drawn), the EC50 at Glucocorticoid receptor [1], on Glucocorticoid receptor [2] and at Glucocorticoid receptor [3] was 3 nM throughout. On Glucocorticoid receptor [4], this compound had an IC50 of 5.2 nM.
`COc1cc(C(O)C2CCCC3=CC(=O)CCC32C)cc(OC)c1OC` (stereo not drawn): on Glucocorticoid receptor [5], the IC50 is more than 2000 nM.
`C[C@@H]1C[C@H]2C3CCC4=CC(=O)C=C[C@]4(C)[C@@]3(F)[C@@H](O)C[C@]2(C)[C@@]1(O)C(=O)O` (stereo partly drawn): the EC50 on Glucocorticoid receptor [1] stood at 0.3 nM; on Glucocorticoid receptor [2], 0.2 nM; at Glucocorticoid receptor [3] it was 0.2 nM; at Glucocorticoid receptor [6], 5.6 nM. The figures for the IC50 at Glucocorticoid receptor [4] and on Glucocorticoid receptor [5] were 1.4 nM and 5 nM, respectively.
Turning to `CCCCC(O)[C@H]1CCCC2=Cc3c(cnn3-c3ccc(F)cc3)C[C@@]21C` (stereo partly drawn), the EC50 on Glucocorticoid receptor [1] amounted to 3 nM; on Glucocorticoid receptor [2], 8 nM; at Glucocorticoid receptor [3], 5 nM. Further, at Glucocorticoid receptor [4], half-maximal inhibition (IC50) was put at 0.7 nM.
With `CCCCCCCCC(O)[C@H]1CCCC2=Cc3c(cnn3-c3ccc(F)cc3)C[C@@]21C` (stereo partly drawn), the EC50 on Glucocorticoid receptor [1] was 4 nM; on Glucocorticoid receptor [2], 6 nM; at Glucocorticoid receptor [3] it was 4 nM. Further, half-maximal inhibition on Glucocorticoid receptor [4] (IC50) required 4.9 nM.
As to `C[C@]12Cc3cnn(-c4ccc(F)cc4)c3C=C1CCC[C@@H]2C(O)Cc1ccccc1` (stereo partly drawn), the values for the EC50 at Glucocorticoid receptor [1], at Glucocorticoid receptor [2] and at Glucocorticoid receptor [3] were 11 nM, 17 nM and 9 nM, respectively. The IC50 against Glucocorticoid receptor [4] was found to be 5.5 nM.
`C[C@]12Cc3cnn(-c4ccc(F)cc4)c3C=C1CCC[C@@H]2C(O)c1ccccc1` (stereo partly drawn): the EC50 on Glucocorticoid receptor [1] came out at 4 nM; on Glucocorticoid receptor [2] it was 3 nM; on Glucocorticoid receptor [3], 3 nM. At Glucocorticoid receptor [4], this compound yielded an IC50 of 7.9 nM.
As to `CC12CCC(=O)C=C1CCCC2C(O)c1ccccc1` (stereo not drawn), the IC50 on Glucocorticoid receptor [5] amounted to 2100 nM.
